PubChem BioAssay AID330 (DTP/NCI, 2004)
Several values for one entry are separate records, joined by “and”; a condition that tells them apart may be missing. Equal entries are not always repeated. Toxic doses and inconclusive results are not listed. The calls were made as follows: active = survival T/C of 150% or more; inactive = T/C below 125% in these data.

Tested on: P388 leukemia ip, CD2F1 mice, survival T/C
Experiment: NCI In Vivo Anticancer Drug Screen. Data for tumor model P388 Leukemia (intraperitoneal) in CD2F1 (CDF1) mice
Settings: endpoint: median survival time, higher = longer survival
Procedure, shortened: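 Mice carrying the transplanted tumor received test compound or vehicle. Survival was recorded in each group, and the value is the treated-group measurement divided by that of the vehicle-treated control group.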

[1] = dose: 50.0 mg/kg/injection, schedule: Q01DX005 (ip), vehicle: saline with Tween-80
[2] = dose: 100.0 mg/kg/injection, schedule: Q01DX005 (ip), vehicle: saline with Tween-80
[3] = dose: 200.0 mg/kg/injection, schedule: Q01DX005 (ip), vehicle: saline with Tween-80
[4] = dose: 25.0 mg/kg/injection, schedule: Q01DX005 (ip), vehicle: Klucel (hydroxypropylcellulose) (HPC)
[5] = dose: 50.0 mg/kg/injection, schedule: Q01DX005 (ip), vehicle: Klucel (hydroxypropylcellulose) (HPC)
[6] = dose: 100.0 mg/kg/injection, schedule: Q01DX005 (ip), vehicle: Klucel (hydroxypropylcellulose) (HPC)
[7] = dose: 200.0 mg/kg/injection, schedule: Q01DX005 (ip), vehicle: Klucel (hydroxypropylcellulose) (HPC)
[8] = dose: 50.0 mg/kg/injection, schedule: Q01DX009 (ip), vehicle: saline
[9] = dose: 100.0 mg/kg/injection, schedule: Q01DX009 (ip), vehicle: saline
[10] = dose: 200.0 mg/kg/injection, schedule: Q01DX009 (ip), vehicle: saline
[11] = dose: 60.0 mg/kg/injection, schedule: Q01DX005 (ip), vehicle: saline with Tween-80
[12] = dose: 120.0 mg/kg/injection, schedule: Q01DX005 (ip), vehicle: saline with Tween-80
[13] = dose: 240.0 mg/kg/injection, schedule: Q01DX005 (ip), vehicle: saline with Tween-80
[14] = dose: 50.0 mg/kg/injection, schedule: Q01DX009 (ip), vehicle: saline with Tween-80
[15] = dose: 100.0 mg/kg/injection, schedule: Q01DX009 (ip), vehicle: saline with Tween-80
[16] = dose: 200.0 mg/kg/injection, schedule: Q01DX009 (ip), vehicle: saline with Tween-80
[17] = dose: 50.0 mg/kg/injection, schedule: Q01DX009 (ip), vehicle: Klucel (hydroxypropylcellulose) (HPC)
[18] = dose: 100.0 mg/kg/injection, schedule: Q01DX009 (ip), vehicle: Klucel (hydroxypropylcellulose) (HPC)
[19] = dose: 200.0 mg/kg/injection, schedule: Q01DX009 (ip), vehicle: Klucel (hydroxypropylcellulose) (HPC)

Measured: T/C

CC1=C(c2ccco2)C2(c3ccco3)C(C(=O)c3ccccc3)C2(C)C1=O (stereo not drawn)
inactive: [1] 90 % of control | [2] 90 % of control | [3] 95 % of control

C(=C\c1ccc2c(c1)OCO2)/c1ccncc1
inactive: [4] 102 % of control | [5] 94 % of control and 102 % of control | [6] 95 % of control and 101 % of control | [7] 100 % of control and 90 % of control

COc1cccc(/C=C/c2ccnnc2)c1
inactive: [8] 96 % of control | [9] 95 % of control | [10] 95 % of control

Cc1cc(=O)c2c(ccc3cc4ccccc4cc32)[nH]1
inactive: [1] 98 % of control | [2] 98 % of control | [3] 97 % of control

CCCCCCCCN=Cc1c(O)c(O)c(C(C)C)c2cc(C)c(-c3c(C)cc4c(C(C)C)c(O)c(O)c(C=NCCCCCCCC)c4c3O)c(O)c12
inactive: [4] 95 % of control | [5] 98 % of control | [6] 98 % of control | [7] 93 % of control

C=C(C)C1CC=C(CCCC(C)COC2OCC(OC(=O)/C(C)=C/CCC3=CCC(C(=C)C)CC3O)C(O)C2O)CC1 (stereo not drawn)
inactive: dose: 10.75 mg/kg/injection, schedule: Q01DX005 (ip), vehicle: Klucel (hydroxypropylcellulose) (HPC) 103 % of control | dose: 21.5 mg/kg/injection, schedule: Q01DX005 (ip), vehicle: Klucel (hydroxypropylcellulose) (HPC) 114 % of control | dose: 43.0 mg/kg/injection, schedule: Q01DX005 (ip), vehicle: Klucel (hydroxypropylcellulose) (HPC) 119 % of control

Cc1noc(C)c1C(=O)CCCCC(=O)O
inactive: [11] 102 % of control | [12] 95 % of control | [13] 104 % of control

COP(=S)(NC(C)C)Oc1ccc(C)cc1[N+](=O)[O-] (stereo not drawn)
inactive: [14] 98 % of control | [15] 100 % of control | [16] 90 % of control

O=C(c1ccccc1)N(CCO)CCO
inactive: [8] 108 % of control | [9] 94 % of control | [10] 101 % of control

CC1=NC(=O)C(N=O)C(=O)N1 (stereo not drawn)
inactive: dose: 100.0 mg/kg/injection, schedule: Q04DX002 (ip), vehicle: saline with Tween-80 99 % of control | dose: 200.0 mg/kg/injection, schedule: Q04DX002 (ip), vehicle: saline with Tween-80 97 % of control

N#CCc1ccccc1C(C#N)C(=O)CCC(=O)C(C#N)c1ccccc1CC#N (stereo not drawn)
inactive: [11] 104 % of control | [12] 103 % of control | [13] 102 % of control

BrC(Br)=C(Br)Br
inactive: [8] 100 % of control | [9] 104 % of control | [10] 104 % of control

CCC(=O)[O][Sn]([CH3])([CH3])[O][Sn]([CH3])([CH3])[O]C(=O)CC
inactive: dose: 6.25 mg/kg/injection, schedule: Q01DX005 (ip), vehicle: saline 117 % of control | dose: 12.5 mg/kg/injection, schedule: Q01DX005 (ip), vehicle: saline 117 % of control and 118 % of control | dose: 25.0 mg/kg/injection, schedule: Q01DX005 (ip), vehicle: saline 120 % of control

CC1=C2C3OC(=O)C(C)C3CCC2(C)C=C(Cl)C1=O (stereo not drawn)
inactive: dose: 60.0 mg/kg/injection, schedule: Q01DX005 (ip), vehicle: Klucel (hydroxypropylcellulose) (HPC) 111 % of control | dose: 120.0 mg/kg/injection, schedule: Q01DX005 (ip), vehicle: Klucel (hydroxypropylcellulose) (HPC) 98 % of control | dose: 240.0 mg/kg/injection, schedule: Q01DX005 (ip), vehicle: Klucel (hydroxypropylcellulose) (HPC) 101 % of control

COC(=O)c1cc(-c2ccc(Cl)cc2)n2c(N)nnc2n1
inactive: [11] 100 % of control | [12] 100 % of control | [13] 104 % of control

NP(N)(=O)NC(=O)c1ccc(F)cc1
inactive: [1] 100 % of control | [2] 100 % of control

O=C1CN(CCCCl)CC(=O)N2Cc3ccccc3CN12
inactive: [1] 106 % of control | [2] 101 % of control | [3] 99 % of control

CSCc1cc(CO)no1
inactive: [11] 100 % of control | [12] 99 % of control | [13] 106 % of control

COc1ccccc1/C=C/C(=O)c1ccccc1
inactive: [14] 96 % of control | [15] 94 % of control | [16] 96 % of control

CC1(C2=CCCCC2)CCC(=O)NC1=O (stereo not drawn)
inactive: [11] 100 % of control | [12] 98 % of control | [13] 98 % of control

CSC(=Nc1ccc(N(C)C)cc1)NC#N
inactive: [17] 106 % of control | [18] 103 % of control | [19] 92 % of control

O=C1OCC/C1=C1/Nc2ccccc2NC1=O
inactive: [14] 89 % of control | [16] 91 % of control

C=C(C)c1nn(-c2ccccc2)c2c1C(=O)CC(C)O2 (stereo not drawn)
inactive: [11] 98 % of control | [12] 100 % of control | [13] 98 % of control

CCCCCCCCCCCCCCCCC[CH2][Sn](=[O])[OH]
inactive: [8] 111 % of control | [9] 113 % of control | [10] 114 % of control

C(=C(Sc1ccccc1)Sc1ccccc1)C(Sc1ccccc1)c1ccccc1 (stereo not drawn)
inactive: [17] 93 % of control | [18] 96 % of control | [19] 90 % of control

Nc1ccc2oc3cccnc3c2c1
inactive: dose: 100.0 mg/kg/injection, schedule: Q04DX003 (ip), vehicle: saline 104 % of control | dose: 200.0 mg/kg/injection, schedule: Q04DX003 (ip), vehicle: saline 111 % of control | dose: 400.0 mg/kg/injection, schedule: Q04DX003 (ip), vehicle: saline 102 % of control

O=C(O)C(O)COc1nsnc1N1CCOCC1 (stereo not drawn)
inactive: [17] 107 % of control | [18] 102 % of control | [19] 107 % of control

CC(=O)NCCSC(=O)C(O)(c1ccccc1)c1ccccc1
inactive: [17] 100 % of control | [18] 98 % of control | [19] 99 % of control

COCCOCOC(C)(C)CCCCl
inactive: [11] 106 % of control | [12] 101 % of control | [13] 100 % of control

O=C1CN(C2CC2N2CC(=O)NC(=O)C2)CC(=O)N1 (stereo not drawn)
inactive: dose: 100.0 mg/kg/injection, schedule: Q04DX003 (ip), vehicle: saline with Tween-80 97 % of control | dose: 200.0 mg/kg/injection, schedule: Q04DX003 (ip), vehicle: saline with Tween-80 100 % of control | dose: 400.0 mg/kg/injection, schedule: Q04DX003 (ip), vehicle: saline with Tween-80 100 % of control

CCOC(=O)C(C)Oc1ccc(Cl)cc1 (stereo not drawn)
inactive: dose: 25.0 mg/kg/injection, schedule: Q01DX009 (ip), vehicle: water 99 % of control | dose: 50.0 mg/kg/injection, schedule: Q01DX009 (ip), vehicle: water 102 % of control | dose: 100.0 mg/kg/injection, schedule: Q01DX009 (ip), vehicle: water 102 % of control | dose: 200.0 mg/kg/injection, schedule: Q01DX009 (ip), vehicle: water 98 % of control | dose: 400.0 mg/kg/injection, schedule: Q01DX009 (ip), vehicle: water 107 % of control

Nc1nc(Cl)cc(=O)[nH]1
inactive: dose: 50.0 mg/kg/injection, schedule: Q04DX003 (ip), vehicle: Klucel (hydroxypropylcellulose) (HPC) 94 % of control | dose: 100.0 mg/kg/injection, schedule: Q04DX003 (ip), vehicle: Klucel (hydroxypropylcellulose) (HPC) 102 % of control | dose: 200.0 mg/kg/injection, schedule: Q04DX003 (ip), vehicle: Klucel (hydroxypropylcellulose) (HPC) 94 % of control | dose: 400.0 mg/kg/injection, schedule: Q04DX003 (ip), vehicle: Klucel (hydroxypropylcellulose) (HPC) 94 % of control
